Experimental findings from the supplement of paper PMC10307832 are described below.

Holding throughout (assay): relative viability (nuclei count vs DMSO), 5 days (fraction); higher = more cells survive
Compound in assay [1]: COC1=CC(c2cc3ccccc3[nH]2)=N/C1=C\c1[nH]c(C)cc1C [Obatoclax] + CS(=O)(=O)CCNCc1ccc(-c2ccc3ncnc(Nc4ccc(OCc5cccc(F)c5)c(Cl)c4)c3c2)o1 [Lapatinib] (partner 2 µM)
An outline of the steps: (§1)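 After 5 days of treatment, lung cancer cells in 1536-well plates were fixed and stained in a single step (final 0.05% Triton X-100, 1% formaldehyde, 1 ug/ml Hoechst) and their nuclei counted on 4× images. Treatment had been applied by pin tool the day after seeding as one drug alone or as a fixed anchor-drug dose with five library-drug doses (not always all listed) in √10 steps. Relative viability is the nuclei count of treated wells divided by that of vehicle wells, and values are medians of duplicate plates.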

Compound in assay [2]: CC(C)C[C@H](NC(=O)[C@H](Cc1ccccc1)NC(=O)c1cnccn1)B(O)O [Bortezomib] + COc1cccc2cc(-c3nc([C@H]4CC[C@H](C(=O)O)CC4)n4ncnc(N)c34)[nH]c12 [OSI-027] (partner 0.5 µM)
An outline of the steps: as §1

Compound in assay [3]: COC1=CC(c2cc3ccccc3[nH]2)=N/C1=C\c1[nH]c(C)cc1C [Obatoclax] + CCNC(=O)c1noc(-c2cc(C(C)C)c(O)cc2O)c1-c1ccc(CN2CCOCC2)cc1 [Luminespib] (partner 0.01 µM)
An outline of the steps: as §1

Compound in assay [4]: COC1=CC(c2cc3ccccc3[nH]2)=N/C1=C\c1[nH]c(C)cc1C [Obatoclax] + CC(=O)Nc1cccc(-n2c(=O)n(C3CC3)c(=O)c3c(Nc4ccc(I)cc4F)n(C)c(=O)c(C)c32)c1 [Trametinib] (partner 0.02 µM)
An outline of the steps: as §1

Consider Calu-6, for which the relative viability in assay [1] (first compound 0.01 µM) was 1.03; in assay [1] (first compound 0.03162 µM), 1.09; in assay [1] (first compound 0.1 µM) it was 1.04; in assay [1] (first compound 0.3162 µM), 0.842; in assay [1] (first compound 1 µM), 0.244.
As for ChaGo-K-1, the relative viability in assay [2] (first compound 0.0002 µM) worked out at 0.576; in assay [2] (first compound 0.000632 µM), 0.539; in assay [2] (first compound 0.002 µM) it was 0.623; in assay [2] (first compound 0.006325 µM) it was 0.48; in assay [2] (first compound 0.02 µM) it was 0.149; in assay [3] (first compound 0.01 µM) it was 0.718. Further, the relative viability came to 0.565 in assay [3] (first compound 0.03162 µM); 0.487 in assay [3] (first compound 0.1 µM); 0.561 in assay [3] (first compound 0.3162 µM); 0.426 in assay [3] (first compound 1 µM); 0.951 in assay [4] (first compound 0.01 µM); 0.846 in assay [4] (first compound 0.03162 µM). Further, the relative viability in assay [4] (first compound 0.1 µM) came out at 0.869; in assay [4] (first compound 0.3162 µM), 0.894; in assay [4] (first compound 1 µM) it was 0.878.
For the cell line EBC-1, the relative viability in assay [1] (first compound 0.01 µM) was found to be 0.204; in assay [1] (first compound 0.03162 µM), 0.213; in assay [1] (first compound 0.1 µM), 0.227; in assay [1] (first compound 0.3162 µM) it was 0.182; in assay [1] (first compound 1 µM), 0.189.
For the cell line EKVX, the relative viability in assay [2] (first compound 0.0002 µM) worked out at 0.725; in assay [2] (first compound 0.000632 µM), 0.672; in assay [2] (first compound 0.002 µM), 0.79; in assay [2] (first compound 0.006325 µM) it was 0.605; in assay [2] (first compound 0.02 µM) it was 0.109; in assay [1] (first compound 0.01 µM), 0.208. The relative viability came out at 0.19 in assay [1] (first compound 0.03162 µM); 0.215 in assay [1] (first compound 0.1 µM); 0.199 in assay [1] (first compound 0.3162 µM); 0.189 in assay [1] (first compound 1 µM); 0.899 in assay [3] (first compound 0.01 µM); 0.954 in assay [3] (first compound 0.03162 µM). In addition, the relative viability in assay [3] (first compound 0.1 µM) was found to be 0.979; in assay [3] (first compound 0.3162 µM), 0.67; in assay [3] (first compound 1 µM), 0.728; in assay [4] (first compound 0.01 µM), 0.321; in assay [4] (first compound 0.1 µM) it was 0.464; in assay [4] (first compound 0.3162 µM) it was 0.307. In addition, the relative viability in assay [4] (first compound 1 µM) came out at 0.292.
For the cell line EMC-BAC-2, the relative viability in assay [2] (first compound 0.0002 µM) was found to be 0.359; in assay [2] (first compound 0.000632 µM), 0.296; in assay [2] (first compound 0.002 µM), 0.321; in assay [2] (first compound 0.006325 µM), 0.206; in assay [2] (first compound 0.02 µM), 0.181; in assay [1] (first compound 0.01 µM), 0.878. Moreover, the relative viability in assay [1] (first compound 0.03162 µM) amounted to 0.908; in assay [1] (first compound 0.1 µM), 0.886; in assay [1] (first compound 0.3162 µM), 0.74; in assay [1] (first compound 1 µM), 0.897; in assay [3] (first compound 0.01 µM), 1.2; in assay [3] (first compound 0.03162 µM), 1.19. For the same cell line, the relative viability in assay [3] (first compound 0.1 µM) stood at 1.16; in assay [3] (first compound 0.3162 µM) it was 1.08; in assay [3] (first compound 1 µM), 1.02; in assay [4] (first compound 0.01 µM), 0.959; in assay [4] (first compound 0.03162 µM), 0.937; in assay [4] (first compound 0.3162 µM) it was 0.89. Also, in assay [4] (first compound 1 µM), the relative viability was found to be 0.557.
As to EPLC-272H, the relative viability in assay [2] (first compound 0.0002 µM) stood at 0.306; in assay [2] (first compound 0.000632 µM), 0.282; in assay [2] (first compound 0.002 µM) it was 0.286; in assay [2] (first compound 0.006325 µM), 0.125; in assay [2] (first compound 0.02 µM), 0.106; in assay [1] (first compound 0.01 µM) it was 0.942. Further, the relative viability in assay [1] (first compound 0.03162 µM) amounted to 0.909; in assay [1] (first compound 0.1 µM), 0.458; in assay [1] (first compound 0.3162 µM), 0.913; in assay [1] (first compound 1 µM) it was 0.883; in assay [3] (first compound 0.01 µM) it was 0.377; in assay [3] (first compound 0.03162 µM), 0.235. Further, the relative viability was 0.393 in assay [3] (first compound 0.1 µM); 0.189 in assay [3] (first compound 0.3162 µM); 0.168 in assay [3] (first compound 1 µM); 0.306 in assay [4] (first compound 0.01 µM); 0.301 in assay [4] (first compound 0.03162 µM); 0.352 in assay [4] (first compound 0.1 µM). Also, the relative viability in assay [4] (first compound 0.3162 µM) worked out at 0.252; in assay [4] (first compound 1 µM) it was 0.301.
As to H3255, the relative viability stood at 0.593 in assay [2] (first compound 0.0002 µM); 0.601 in assay [2] (first compound 0.000632 µM); 0.466 in assay [2] (first compound 0.002 µM); 0.352 in assay [2] (first compound 0.006325 µM); 0.28 in assay [2] (first compound 0.02 µM); 0.51 in assay [1] (first compound 0.01 µM). The relative viability in assay [1] (first compound 0.03162 µM) stood at 0.244; in assay [1] (first compound 0.1 µM) it was 0.327; in assay [1] (first compound 0.3162 µM) it was 0.256; in assay [1] (first compound 1 µM), 0.315; in assay [3] (first compound 0.01 µM), 0.903; in assay [3] (first compound 0.03162 µM) it was 0.823. The relative viability worked out at 0.899 in assay [3] (first compound 0.1 µM); 0.88 in assay [3] (first compound 0.3162 µM); 0.806 in assay [3] (first compound 1 µM); 0.561 in assay [4] (first compound 0.01 µM); 0.629 in assay [4] (first compound 0.03162 µM); 0.631 in assay [4] (first compound 0.3162 µM). The relative viability in assay [4] (first compound 1 µM) was 0.615.
Take HARA: the relative viability came to 0.439 in assay [2] (first compound 0.0002 µM); 0.322 in assay [2] (first compound 0.000632 µM); 0.616 in assay [2] (first compound 0.002 µM); 0.0379 in assay [2] (first compound 0.006325 µM); 0.0617 in assay [2] (first compound 0.02 µM); 0.816 in assay [1] (first compound 0.01 µM). Further, the relative viability was determined as 0.752 in assay [1] (first compound 0.03162 µM); 0.667 in assay [1] (first compound 0.1 µM); 0.69 in assay [1] (first compound 0.3162 µM); 0.297 in assay [1] (first compound 1 µM); 0.889 in assay [3] (first compound 0.01 µM); 0.827 in assay [3] (first compound 0.03162 µM). Also, the relative viability in assay [3] (first compound 0.1 µM) is 0.728; in assay [3] (first compound 0.3162 µM), 0.692; in assay [3] (first compound 1 µM) it was 1.05; in assay [4] (first compound 0.01 µM), 0.658; in assay [4] (first compound 0.03162 µM), 0.926; in assay [4] (first compound 0.1 µM), 0.83. For the same cell line, the relative viability is 0.768 in assay [4] (first compound 0.3162 µM) and 0.705 in assay [4] (first compound 1 µM).
